By EC50 is commonly meant the concentration giving half of the maximal effect. In general, CC50 refers to the concentration at which the toxic effect on the cells reaches its halfway point.

This is an account of results in patent US12594276B2, “Inhibitors of human immunodeficiency virus replication” (ViiV Healthcare UK (No.5) Limited, priority 2024, dated 2026).

Data set [1] deals with recombinant NL4-3 virus (nef section replaced with Renilla luciferase gene) in MT-2 cells. Put plainly: HIV cell culture assay (antiviral activity, luciferase readout). Format: cell-based. The settings on record: Renilla, NL43, MT-2 cells infected for 4-5 days with recombinant NL4-3 Renilla luciferase virus. The method, boiled down:
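Read-out: Renilla luciferase (live-cell substrate) in infected MT-2 cells after 4-5 d with serial compound dilutions. Virus from 293T transfection of the proviral clone, titered by luciferase in MT-2. EC50 via median effect equation fit.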

Data set [2] is described as follows: Compound cytotoxicity, XTT-based colorimetric assay. The data set is classed as cell-based. To be noted: human; uninfected MT2 cells, day 4, XTT; read-out: CC50. The procedure, abridged: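 Uninfected MT2 cells, antiviral-assay protocol without virus; XTT colorimetric readout day 4; CC50 reported.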
For orientation: Tetrazolium dyes change colour on reduction, which living cells bring about.

As for `Cc1cc(C2(F)CCC(F)(F)CC2)nc2nc([C@H](Cc3cc(F)cc(F)c3)NC(=O)Cn3nc(C(F)F)c4c3C(F)(F)[C@@H]3C[C@H]43)n(-c3ccc(Cl)c4c(NS(C)(=O)=O)nn(CCN5CCOC(C)(C)C5)c34)c(=O)c12` (atropisomer, axis not shown; (P)) [Example 578, N-[(1S)-1-[(3P)-3-{4-chloro-1-[2-(2,2-dimethylmorpholin-4-yl)ethyl]-3-methanesulfonamido-1H-indazol-7-yl}-5-methyl-4-oxo-7-(1,4,4-trifluorocyclohexyl)-3H,4H-pyrido[2,3-d]pyrimidin-2-yl]-2-(3,5-difluorophenyl)ethyl]-2-[(2S,4R)-9-(difluoromethyl)-5,5-difluoro-7,8-diazatricyclo[4.3.0.0^2,^4]nona-1(6),8-dien-7-yl]acetamide], the EC50 in data set [1] worked out at 0.008 nM. Further, in data set [2], the half-maximal cytotoxic concentration (CC50) at 4 days is over 20 nM.
On the same counts, the results for `Cc1cc(C2(F)CCC(F)(F)CC2)nc2nc([C@H](Cc3cc(F)cc(F)c3)NC(=O)Cn3nc(C(F)F)c4c3C(F)(F)[C@@H]3C[C@H]43)n(-c3ccc(Cl)c4c(NS(C)(=O)=O)nn(CCN5CCOCC5(C)C)c34)c(=O)c12` (atropisomer, axis not shown; (P)) [Example 579, N-[(1S)-1-[(3P)-3-{4-chloro-1-[2-(3,3-dimethylmorpholin-4-yl)ethyl]-3-methanesulfonamido-1H-indazol-7-yl}-5-methyl-4-oxo-7-(1,4,4-trifluorocyclohexyl)-3H,4H-pyrido[2,3-d]pyrimidin-2-yl]-2-(3,5-difluorophenyl)ethyl]-2-[(2S,4R)-9-(difluoromethyl)-5,5-difluoro-7,8-diazatricyclo[4.3.0.0^2,^4]nona-1(6),8-dien-7-yl]acetamide] are 0.011 nM and over 20 nM.
In the same order, the values of `Cc1cc(C2(F)CCC(F)(F)CC2)nc2nc([C@H](Cc3cc(F)cc(F)c3)NC(=O)Cn3nc(C4CC4)c4c3C[C@@H]3C[C@H]43)n(-c3ccc(Cl)c4c(NS(C)(=O)=O)nn(CCN5CCO[C@@H](C(C)C)C5)c34)c(=O)c12` (atropisomer, axis not shown; (P)) [Example 581, N-[(1S)-1-[(3P)-3-(4-chloro-3-methanesulfonamido-1-{2-[(2S)-2-(propan-2-yl)morpholin-4-yl]ethyl}-1H-indazol-7-yl)-5-methyl-4-oxo-7-(1,4,4-trifluorocyclohexyl)-3H,4H-pyrido[2,3-d]pyrimidin-2-yl]-2-(3,5-difluorophenyl)ethyl]-2-[(2S,4S)-9-cyclopropyl-7,8-diazatricyclo[4.3.0.0^2,^4]nona-1(6),8-dien-7-yl]acetamide] are 0.015 nM and over 20 nM.
Consider `Cc1cc(C2(F)CCC(F)(F)CC2)nc2nc([C@H](Cc3cc(F)cc(F)c3)NC(=O)Cn3nc(C4CC4)c4c3C[C@@H]3C[C@H]43)n(-c3ccc(Cl)c4c(NS(C)(=O)=O)nn(CCN5CCO[C@H](C(C)C)C5)c34)c(=O)c12` (atropisomer, axis not shown; (P)) [Example 582, N-[(1S)-1-[(3P)-3-(4-chloro-3-methanesulfonamido-1-{2-[(2R)-2-(propan-2-yl)morpholin-4-yl]ethyl}-1H-indazol-7-yl)-5-methyl-4-oxo-7-(1,4,4-trifluorocyclohexyl)-3H,4H-pyrido[2,3-d]pyrimidin-2-yl]-2-(3,5-difluorophenyl)ethyl]-2-[(2S,4S)-9-cyclopropyl-7,8-diazatricyclo[4.3.0.0^2,^4]nona-1(6),8-dien-7-yl]acetamide], for which the EC50 in data set [1] worked out at 0.017 nM. Besides, the CC50 at 4 days in data set [2] was over 20 nM.
In the same order, the values of `Cc1cc(C2(F)CCC(F)(F)CC2)nc2nc([C@H](Cc3cc(F)cc(F)c3)NC(=O)Cn3nc(C4CC4)c4c3C[C@@H]3C[C@H]43)n(-c3ccc(Cl)c4c(NS(C)(=O)=O)nn(CCN5C[C@H](C)OC(C)(C)C5)c34)c(=O)c12` (atropisomer, axis not shown; (P)) [Example 583, N-[(1S)-1-[(3P)-3-(4-chloro-3-methanesulfonamido-1-{2-[(6S)-2,2,6-trimethylmorpholin-4-yl]ethyl}-1H-indazol-7-yl)-5-methyl-4-oxo-7-(1,4,4-trifluorocyclohexyl)-3H,4H-pyrido[2,3-d]pyrimidin-2-yl]-2-(3,5-difluorophenyl)ethyl]-2-[(2S,4S)-9-cyclopropyl-7,8-diazatricyclo[4.3.0.0^2,^4]nona-1(6),8-dien-7-yl]acetamide] are 0.031 nM and over 20 nM.
On the same counts, the results for `Cc1cc(C2(F)CCC(F)(F)CC2)nc2nc([C@H](Cc3cc(F)cc(F)c3)NC(=O)Cn3nc(C4CC4)c4c3C[C@@H]3C[C@H]43)n(-c3ccc(Cl)c4c(NS(C)(=O)=O)nn(CCN5C[C@@H](C)OC(C)(C)C5)c34)c(=O)c12` (atropisomer, axis not shown; (P)) [Example 584, N-[(1S)-1-[(3P)-3-(4-chloro-3-methanesulfonamido-1-{2-[(6R)-2,2,6-trimethylmorpholin-4-yl]ethyl}-1H-indazol-7-yl)-5-methyl-4-oxo-7-(1,4,4-trifluorocyclohexyl)-3H,4H-pyrido[2,3-d]pyrimidin-2-yl]-2-(3,5-difluorophenyl)ethyl]-2-[(2S,4S)-9-cyclopropyl-7,8-diazatricyclo[4.3.0.0^2,^4]nona-1(6),8-dien-7-yl]acetamide] are 0.015 nM and over 20 nM.
In the same order, the values of `Cc1cc(C2(F)CCC(F)(F)CC2)nc2nc([C@H](Cc3cc(F)cc(F)c3)NC(=O)Cn3nc(C4CC4)c4c3C[C@@H]3C[C@H]43)n(-c3ccc(Cl)c4c(NS(C)(=O)=O)nn(CCN5CCOC(C)(C)C5)c34)c(=O)c12` (atropisomer, axis not shown; (P)) [Example 585, N-[(1S)-1-[(3P)-3-{4-chloro-1-[2-(2,2-dimethylmorpholin-4-yl)ethyl]-3-methanesulfonamido-1H-indazol-7-yl}-5-methyl-4-oxo-7-(1,4,4-trifluorocyclohexyl)-3H,4H-pyrido[2,3-d]pyrimidin-2-yl]-2-(3,5-difluorophenyl)ethyl]-2-[(2S,4S)-9-cyclopropyl-7,8-diazatricyclo[4.3.0.0^2,^4]nona-1(6),8-dien-7-yl]acetamide] are 0.012 nM and over 20 nM.
In the case of `Cc1cc(C2(F)CCC(F)(F)CC2)nc2nc([C@H](Cc3cc(F)cc(F)c3)NC(=O)Cn3nc(C4CC4)c4c3C[C@@H]3C[C@H]43)n(-c3ccc(Cl)c4c(NS(C)(=O)=O)nn(CCN5CCOCC5(C)C)c34)c(=O)c12` (atropisomer, axis not shown; (P)) [Example 586, N-[(1S)-1-[(3P)-3-{4-chloro-1-[2-(3,3-dimethylmorpholin-4-yl)ethyl]-3-methanesulfonamido-1H-indazol-7-yl}-5-methyl-4-oxo-7-(1,4,4-trifluorocyclohexyl)-3H,4H-pyrido[2,3-d]pyrimidin-2-yl]-2-(3,5-difluorophenyl)ethyl]-2-[(2S,4S)-9-cyclopropyl-7,8-diazatricyclo[4.3.0.0^2,^4]nona-1(6),8-dien-7-yl]acetamide], the 50% effective concentration (EC50) in data set [1] was determined as 0.016 nM. The CC50 at 4 days in data set [2] was over 20 nM.
